# Experimental data published in ChEMBL document CHEMBL1165859, “Synthesis, antiproliferative, acute toxicity and assessment of antiandrogenic activities of some newly synthesized steroidal lactams” (Eur J Med Chem, 2010).
# Assay: Cytotoxicity against Balb/C mouse macrophages assessed as cell viability after 24 hrs by MTT assay
# Format: cell-based
# Details: Macrophage
row,Structure (SMILES),LC50 [µM]
1,CC(C)(C)NC(=O)[C@H]1CC[C@H]2[C@@H]3CC[C@H]4NC(=O)C=C[C@]4(C)[C@H]3CC[C@]12C [FINASTERIDE],28.2
2,C[C@]12CC[C@H](OC(=O)c3ccc(Cl)cc3)CC1=CC[C@@H]1[C@@H]2CC[C@]2(C)NC(=O)CC[C@@H]12,100
3,C[C@]12CC[C@H](OC(=O)c3ccc(N)cc3)CC1=CC[C@@H]1[C@@H]2CC[C@]2(C)NC(=O)CC[C@@H]12,25.1
4,C[C@]12CC[C@H](OC(=O)c3ccc(O)cc3)CC1=CC[C@@H]1[C@@H]2CC[C@]2(C)NC(=O)CC[C@@H]12,75
5,C[C@]12CC[C@H](OC(=O)COc3ccccc3)CC1=CC[C@@H]1[C@@H]2CC[C@]2(C)NC(=O)CC[C@@H]12,11.7
6,COc1ccc(C(=O)O[C@H]2CC[C@@]3(C)C(=CC[C@@H]4[C@@H]3CC[C@]3(C)NC(=O)CC[C@@H]43)C2)cc1,8.4
7,C[C@]12CC[C@H](OC(=O)c3ccccc3)CC1=CC[C@@H]1[C@@H]2CC[C@]2(C)NC(=O)CC[C@@H]12,43.6
8,C[C@]12CC[C@H](OC(=O)c3ccc([N+](=O)[O-])cc3)CC1=CC[C@@H]1[C@@H]2CC[C@]2(C)NC(=O)CC[C@@H]12,27.8
9,Cc1ccc(C(=O)O[C@H]2CC[C@@]3(C)C(=CC[C@@H]4[C@@H]3CC[C@]3(C)NC(=O)CC[C@@H]43)C2)cc1,22.8
10,C[C@]12CC[C@H](OC(=O)CCl)CC1=CC[C@@H]1[C@@H]2CC[C@]2(C)NC(=O)CC[C@@H]12,94.1

# Assay: Cytotoxicity against Balb/C mouse macrophages assessed as cell mortality at 0.01 to 5 ug/ml after 24 hrs by MTT assay
# Details: not given
row,Structure (SMILES),mortality at 24 h [%]
1,C[C@]12CC[C@H](OC(=O)c3ccc(O)cc3)CC1=CC[C@@H]1[C@@H]2CC[C@]2(C)NC(=O)CC[C@@H]12,20
